Our source for the IC50 values is patent US5866570A, “Treatment of vascular leakage and related syndrome such as septic shock by administration of metalloproteinase inhibitors” (Wisconsin Alumni Research Foundation, priority 1994, dated 1999).

The target of this assay is T1, E. coli recombinant human 72 kD collagenase type IV (MMP-2), pAPMA activated (Homo sapiens, UniProt P08253).
T1 construct: made in house; host or cells: E. coli
T1 sequence (P08253 110-660): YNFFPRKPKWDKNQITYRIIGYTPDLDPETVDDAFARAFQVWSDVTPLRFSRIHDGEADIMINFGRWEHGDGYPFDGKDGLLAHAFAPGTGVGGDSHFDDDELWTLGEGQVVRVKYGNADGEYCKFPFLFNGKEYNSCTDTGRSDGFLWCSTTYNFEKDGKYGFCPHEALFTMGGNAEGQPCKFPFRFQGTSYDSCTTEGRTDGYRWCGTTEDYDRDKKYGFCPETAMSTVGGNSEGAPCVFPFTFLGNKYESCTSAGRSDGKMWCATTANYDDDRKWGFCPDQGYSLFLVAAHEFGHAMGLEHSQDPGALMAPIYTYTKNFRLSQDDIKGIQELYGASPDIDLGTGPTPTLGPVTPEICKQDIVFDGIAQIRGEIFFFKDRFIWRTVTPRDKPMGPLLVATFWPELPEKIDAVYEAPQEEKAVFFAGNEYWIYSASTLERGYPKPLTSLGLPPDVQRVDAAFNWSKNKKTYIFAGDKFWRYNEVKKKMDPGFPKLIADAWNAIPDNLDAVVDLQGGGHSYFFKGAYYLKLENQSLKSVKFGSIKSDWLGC
The assay can be described thus: gelatinase assay (3H-gelatin degradation), Example 9. The settings on record: 100 ng activated enzyme, 4 hrs preincubation with inhibitor at 37° C., 3H-gelatin substrate; read-out: IC50, inhibition of collagenase type IV gelatinase activity. The class given is biochemical. The text has this:
Type IV collagenases are highly efficient in digesting gelatin. Inhibition of the gelatinase activity of human recombinant collagenase type IV was used as an initial assay for testing the bis(dioxopiperazine)s. The recombinant 72 kD collagenase IV used in the gelatinase assays was made in E. coli from a cDNA insert obtained from Dr. William Stetler-Stevenson (NCI). The protein runs at 72 kD on SDS-PAGE, has gelatinolytic activity in zymogram, is activated by pAPMA, is precipitated by a monoclonal anti-peptide antibody to the pro-region of the 72 kD enzyme, and is inhibited by TIMP-2. Rat tail ^3 H-collagen I (Dupont-NEN) is denatured to become gelatin by heating at 60° C. for 20 min. E. coli recombinant human 72 kD collagenase type IV is activated by incubation with 1 mM pAPMA for 1 hr. at 37° C. 100 ng of activated enzyme is added to each tube containing 50 mM Tris-HCl pH 7.5, 5 mM CaCl2 and 0.005% Brij-35 and pre-incubated with inhibitor or solvent control for 4 hrs. at 37° C. in a total of 25 μl. 10,000 cpm of ^3 H-gelatin substrate in 30 μl is added (final volume of 55 μl per sample) and the reaction mixture is incubated at 37° C. for 2 to 16 hrs. […] Enzyme activity is calculated from the radioactivity in the supernatant and activity of the compounds expressed as percent solvent control.

pIC50: −log10 of the molar value.

Broadly, the pIC50 is −log10 of the IC50, conventionally taken in molar units. For `CC1(C)O[C@H]2C[C@H](N3CC(=O)NC(=O)C3)[C@@H](N3CC(=O)NC(=O)C3)C[C@@H]2O1` (relative stereo) [Compound 80, (3aα, 5β, 6α, 7aβ)-4,4'-(hexahydro-2,2-dimethyl-1,3-benzodioxole-5,6-diyl)bis(2,6-piperazinedione)], the pIC50 was 5.10.
